From patent US10858362B2, “Imidazopyrazinones as PDE1 inhibitors” (H. Lundbeck A/S, priority 2015, dated 2020)

How the values were obtained:
Assay type in all cases: biochemical
[1] = target: PDE1A (Homo sapiens (Human), UniProt P54750); test: PDE1 inhibition assay, PDE1A; details: for IC50: 15 nM tritium labelled cAMP
Method: (§1) Reactions were initiated by addition of the cyclic nucleotide substrate, and reactions were allowed to proceed for 1 h at room temperature before being terminated through mixing with 20 μL (0.2 mg) yttrium silicate SPA beads (PerkinElmer).

[2] = target: PDE1B (Homo sapiens (Human), UniProt Q01064); test: PDE1 inhibition assay, PDE1B; details: for IC50: 15 nM tritium labelled cAMP
Method: as §1, with “(PerkinElmer). The beads were allowed to settle for 1 h in the dark before the plates were counted in a Wallac 1450 Microbeta counter.” for “(PerkinElmer).”

[3] = target: PDE1C (Homo sapiens (Human), UniProt Q14123); test: PDE1 inhibition assay, PDE1C; details: for IC50: 15 nM tritium labelled cAMP
Method: as §1, with “(PerkinElmer). The beads were allowed to settle for 1 h in the dark before the plates were counted in a Wallac 1450 Microbeta counter.” for “(PerkinElmer).”

[4] = target: PDE9 (Homo sapiens (Human), UniProt O76083); test: PDE9 inhibition assay
Method: A PDE9 assay may for example, be performed as follows: The assay is performed in 60 μL samples containing a fixed amount of the relevant PDE enzyme (sufficient to convert 20-25% of the cyclic nucleotide substrate), a buffer (50 mM HEPES7.6; 10 mM MgCl2; 0.02% Tween20), 0.1 mg/ml BSA, 225 pCi of ^3H-labelled cyclic nucleotide substrate, tritium labeled cAMP to a final concentration of 5 nM and varying amounts of inhibitors. Reactions are initiated by addition of the cyclic nucleotide substrate, and reactions are allowed to proceed for one hr at room temperature before being terminated through mixing with 15 μL 8 mg/mL yttrium silicate SPA beads (Amersham). The beads are allowed to settle for one hr in the dark before the plates are counted in a Wallac 1450 Microbeta counter.
In the context of the present invention the assay was performed in 60 μL assay buffer (50 mM HEPES pH 7.6; 10 mM MgCl2; 0.02% Tween20) containing enough PDE9 to convert 20-25% of 10 nM ^3H-cAMP and varying amounts of inhibitors. Following a 1 hr incubation the reactions were terminated by addition of 15 μL 8 mg/mL yttrium silicate SPA beads (Amersham). The beads were allowed to settle for one hr in the dark before the plates were counted in a Wallac 1450 Microbeta counter.

PDE1C, sequence (Q14123 whole entry): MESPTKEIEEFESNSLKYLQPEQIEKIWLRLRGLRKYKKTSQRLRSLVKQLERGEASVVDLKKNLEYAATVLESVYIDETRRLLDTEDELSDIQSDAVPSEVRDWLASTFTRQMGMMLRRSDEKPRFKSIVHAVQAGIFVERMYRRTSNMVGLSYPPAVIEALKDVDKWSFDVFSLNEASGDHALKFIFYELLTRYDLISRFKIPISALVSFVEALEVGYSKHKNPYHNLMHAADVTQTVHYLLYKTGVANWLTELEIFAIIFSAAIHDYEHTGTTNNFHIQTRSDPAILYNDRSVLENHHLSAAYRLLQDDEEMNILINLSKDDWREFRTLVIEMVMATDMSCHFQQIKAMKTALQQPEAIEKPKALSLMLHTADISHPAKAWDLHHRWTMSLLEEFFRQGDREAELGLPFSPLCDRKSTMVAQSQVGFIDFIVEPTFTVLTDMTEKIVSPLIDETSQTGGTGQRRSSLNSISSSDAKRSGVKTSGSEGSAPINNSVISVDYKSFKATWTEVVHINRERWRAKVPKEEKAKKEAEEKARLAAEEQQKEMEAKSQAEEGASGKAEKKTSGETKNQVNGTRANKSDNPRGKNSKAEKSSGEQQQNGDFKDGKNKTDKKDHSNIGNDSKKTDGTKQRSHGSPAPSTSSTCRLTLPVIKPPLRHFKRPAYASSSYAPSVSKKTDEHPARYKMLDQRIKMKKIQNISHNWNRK
PDE9, sequence (O76083 whole entry): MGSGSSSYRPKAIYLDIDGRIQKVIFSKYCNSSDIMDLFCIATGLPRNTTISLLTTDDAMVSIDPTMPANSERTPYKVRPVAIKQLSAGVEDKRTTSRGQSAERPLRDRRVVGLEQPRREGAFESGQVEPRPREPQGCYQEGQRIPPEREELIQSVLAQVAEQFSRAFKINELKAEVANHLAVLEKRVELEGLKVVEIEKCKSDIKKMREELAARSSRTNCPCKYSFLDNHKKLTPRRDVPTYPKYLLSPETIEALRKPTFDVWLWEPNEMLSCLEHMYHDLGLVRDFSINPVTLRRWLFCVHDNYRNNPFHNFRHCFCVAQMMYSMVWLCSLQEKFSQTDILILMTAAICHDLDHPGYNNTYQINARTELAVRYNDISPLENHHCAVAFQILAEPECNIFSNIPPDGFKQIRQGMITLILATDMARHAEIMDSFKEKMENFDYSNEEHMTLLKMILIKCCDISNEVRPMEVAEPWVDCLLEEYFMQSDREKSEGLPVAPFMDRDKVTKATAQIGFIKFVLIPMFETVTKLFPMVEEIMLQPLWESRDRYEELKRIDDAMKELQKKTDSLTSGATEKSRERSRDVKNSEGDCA
PDE1B, sequence (Q01064 whole entry): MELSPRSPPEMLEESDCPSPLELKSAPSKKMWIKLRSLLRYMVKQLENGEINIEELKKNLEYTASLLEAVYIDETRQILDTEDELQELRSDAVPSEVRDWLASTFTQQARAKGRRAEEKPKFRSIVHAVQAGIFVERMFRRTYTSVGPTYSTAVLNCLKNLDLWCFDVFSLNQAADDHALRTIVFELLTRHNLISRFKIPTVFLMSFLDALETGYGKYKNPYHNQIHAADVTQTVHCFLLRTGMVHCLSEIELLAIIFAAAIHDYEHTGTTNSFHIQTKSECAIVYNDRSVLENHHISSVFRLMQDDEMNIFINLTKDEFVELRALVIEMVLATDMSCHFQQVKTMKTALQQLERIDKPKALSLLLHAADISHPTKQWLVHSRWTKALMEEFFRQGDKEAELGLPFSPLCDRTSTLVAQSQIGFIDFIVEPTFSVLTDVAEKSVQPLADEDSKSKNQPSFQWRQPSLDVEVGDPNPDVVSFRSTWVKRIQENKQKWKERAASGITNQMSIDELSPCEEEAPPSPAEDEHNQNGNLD
PDE1A, sequence (P54750 whole entry): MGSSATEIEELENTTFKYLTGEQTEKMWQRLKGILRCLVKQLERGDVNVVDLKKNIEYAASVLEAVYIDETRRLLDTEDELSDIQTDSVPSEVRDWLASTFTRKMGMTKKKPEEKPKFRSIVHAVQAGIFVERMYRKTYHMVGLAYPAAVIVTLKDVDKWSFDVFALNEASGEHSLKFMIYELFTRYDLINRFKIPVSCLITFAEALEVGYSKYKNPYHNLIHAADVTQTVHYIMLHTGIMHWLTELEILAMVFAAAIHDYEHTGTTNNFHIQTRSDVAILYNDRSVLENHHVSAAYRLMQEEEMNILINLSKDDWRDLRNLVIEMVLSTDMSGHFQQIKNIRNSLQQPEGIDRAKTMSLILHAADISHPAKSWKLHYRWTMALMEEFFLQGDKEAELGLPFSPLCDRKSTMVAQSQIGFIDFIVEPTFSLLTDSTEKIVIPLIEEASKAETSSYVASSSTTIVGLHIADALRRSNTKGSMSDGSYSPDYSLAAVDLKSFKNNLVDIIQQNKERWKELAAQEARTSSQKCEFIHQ

Row | IC50 [2] [nM] | IC50 [3] [nM] | % inhibition of PDE9 at 10 microM [4] [%] | IC50 [1] [nM] | Structure (SMILES) | further results
1 | 615 | 225 | −11 | – | Cc1cn2c([C@@H]3CCCCO3)ncc2c(=O)n1Cc1cccc(F)c1 (single isomer, unassigned; isomer 1) [30, isomer 1] | PDE1A, % inhibition (at 1 μM) [1]: 20%
2 | 106 | 27 | −1 | 337 | Cc1cn2c([C@@H]3CCOC3)ncc2c(=O)n1Cc1cccc(F)c1 (single isomer, unassigned; isomer 1) [31, isomer 1] | –
3 | 122 | 22 | −1 | 257 | Cc1cn2c([C@]3(C)CCOC3)ncc2c(=O)n1Cc1cccc(F)c1 (single isomer, unassigned; isomer 1) [32, isomer 1] | –
4 | 75 | 19 | −11 | 193 | Cc1cn2c([C@@H]3C[C@@H]3C)ncc2c(=O)n1Cc1cccc(F)c1 (single isomer, unassigned; isomer 1) [35, isomer 1] | –
5 | 59 | – | 3 | 152 | Cc1cn2c([C@@H]3CCO[C@@H]3C)ncc2c(=O)n1Cc1cccc(F)c1 (single isomer, unassigned; isomer 1) [36, isomer 1] | –
6 | – | 345 | −2 | – | Cc1cn2c(C3C[C@@H]3F)ncc2c(=O)n1Cc1cccc(F)c1 (single isomer, unassigned; isomer 1) [37, isomer 1] | –
7 | – | – | −1 | – | Cc1cn2c(C3C[C@H]3F)ncc2c(=O)n1Cc1cccc(F)c1 (single isomer, unassigned; isomer 1) [38, isomer 1] | –
8 | 10 | – | 18 | – | COc1ccc(Cn2c(C)cn3c([C@@H]4CCO[C@@H]4C)ncc3c2=O)cc1 (single isomer, unassigned; isomer 1) [55, isomer 1] | –
9 | 134 | 27 | 9 | 241 | Cc1cn2c(N3CCC4OCCC43)ncc2c(=O)n1Cc1cccc(F)c1 (single isomer, unassigned; isomer 1) [99, isomer 1] | –
10 | 223 | 43 | 11 | 306 | Cc1cn2c([C@@H]3CCCOC3)ncc2c(=O)n1Cc1cccc(F)c1 (single isomer, unassigned; isomer 1) [100, isomer 1] | –
11 | – | 215 | 28 | – | Cc1cn2c([C@H]3CCCCO3)ncc2c(=O)n1Cc1cccc(F)c1 (single isomer, unassigned; isomer 2) [30, isomer 2] | PDE1A, % inhibition (at 1 μM) [1]: 27%; PDE1B, % inhibition (at 1 μM) ([2]; at 1 μM): 40%
12 | 138 | 31 | 5 | 347 | Cc1cn2c([C@H]3CCOC3)ncc2c(=O)n1Cc1cccc(F)c1 (single isomer, unassigned; isomer 2) [31, isomer 2] | –
13 | 170 | 40 | 16 | 401 | Cc1cn2c(C3(C)CCOC3)ncc2c(=O)n1Cc1cccc(F)c1 (single isomer, unassigned; isomer 2) [32, isomer 2] | –
14 | 166 | 41 | 15 | 364 | Cc1cn2c([C@@H]3C[C@H]3C)ncc2c(=O)n1Cc1cccc(F)c1 (single isomer, unassigned; isomer 2) [35, isomer 2] | –
15 | 107 | – | 11 | 282 | Cc1cn2c([C@H]3CCO[C@@H]3C)ncc2c(=O)n1Cc1cccc(F)c1 (single isomer, unassigned; isomer 2) [36, isomer 2] | –
16 | – | 55 | 13 | – | Cc1cn2c(C3C[C@@H]3F)ncc2c(=O)n1Cc1cccc(F)c1 (single isomer, unassigned; isomer 2) [37, isomer 2] | –

Row | IC50 [2] [nM] | IC50 [3] [nM] | % inhibition of PDE9 at 10 microM [4] [%] | IC50 [1] [nM] | Structure (SMILES) | further results
17 | – | 153 | 2 | – | Cc1cn2c(C3C[C@H]3F)ncc2c(=O)n1Cc1cccc(F)c1 (single isomer, unassigned; isomer 2) [38, isomer 2] | –
18 | 64 | – | −13 | – | COc1ccc(Cn2c(C)cn3c([C@@H]4CCO[C@H]4C)ncc3c2=O)cc1 (single isomer, unassigned; isomer 2) [55, isomer 2] | –
19 | 760 | 119 | 6 | – | Cc1cn2c(N3CCC4OCCC43)ncc2c(=O)n1Cc1cccc(F)c1 (single isomer, unassigned; isomer 2) [99, isomer 2] | PDE1A, % inhibition (at 10 μM) ([1]; at 10 μM): 47%
20 | 93 | 33 | −21 | 333 | Cc1cn2c([C@H]3CCCOC3)ncc2c(=O)n1Cc1cccc(F)c1 (single isomer, unassigned; isomer 2) [100, isomer 2] | –
21 | 18 | 8 | 0 | 82 | Cc1cn2c([C@H]3C[C@@H]3C)ncc2c(=O)n1Cc1cccc(F)c1 (single isomer, unassigned; isomer 3) [35, isomer 3] | –
22 | 21 | – | −10 | 77 | Cc1cn2c([C@@H]3CCO[C@H]3C)ncc2c(=O)n1Cc1cccc(F)c1 (single isomer, unassigned; isomer 3) [36, isomer 3] | –
23 | 3 | – | – | – | COc1ccc(Cn2c(C)cn3c([C@@H]4CCO[C@H]4C)ncc3c2=O)cc1 (single isomer, unassigned; isomer 3) [55, isomer 3] | –
24 | 360 | 85 | 5 | – | Cc1cn2c([C@H]3C[C@H]3C)ncc2c(=O)n1Cc1cccc(F)c1 (single isomer, unassigned; isomer 4) [35, isomer 4] | PDE1A, % inhibition (at 1 μM) [1]: 43%
25 | 520 | – | 11 | 51 | Cc1cn2c([C@H]3CCO[C@H]3C)ncc2c(=O)n1Cc1cccc(F)c1 (single isomer, unassigned; isomer 4) [36, isomer 4] | PDE1C, % inhibition (at 1 μM) ([3]; at 1 μM): 40%
26 | 208 | – | 1 | – | COc1ccc(Cn2c(C)cn3c([C@H]4CCO[C@H]4C)ncc3c2=O)cc1 (single isomer, unassigned; isomer 4) [55, isomer 4] | –
27 | 6 | 4 | −3 | 7 | Cc1cn2c(C3CCOCC3)ncc2c(=O)n1C[C@H]1CC[C@@H](C)CC1 [66, cis] | –
28 | 11 | 46 | −2 | 35 | Cc1cn2c(C3CCOCC3)ncc2c(=O)n1C[C@H]1CC[C@H](C)CC1 [66, trans] | –
29 | – | – | – | – | COc1cc(Cn2c(C)cn3c(C4CCOCC4)ncc3c2=O)ccc1Cl [Example 48, 7-(4-chloro-3-methoxybenzyl)-6-methyl-3-(tetrahydro-2H-pyran-4-yl)imidazo[1,5-a]pyrazin-8(7H)-one] | inhibition at 1 µM ([2]; read-out: PDE1B, % inhibition (at 1 μM)): 54%; inhibition at 1 µM ([3]; read-out: PDE1C, % inhibition (at 1 μM)): 34%; inhibition at 10 µM [4]: 10%
30 | 7 | 20 | – | 13 | COc1ccc(Cn2c(C)cn3c(C(C)C)ncc3c2=O)cc1 [Example 77, 3-isopropyl-7-(4-methoxybenzyl)-6-methylimidazo[1,5-a]pyrazin-8(7H)-one] | –
31 | – | – | – | – | COc1ccc(Cn2c(C)cn3c(C(C)(C)F)ncc3c2=O)cc1 [Example 87, 3-(2-fluoropropan-2-yl)-7-(4-methoxybenzyl)-6-methylimidazo[1,5-a]pyrazin-8(7H)-one] | inhibition at 10 µM [4]: 10%
32 | 38 | 51 | – | 48 | COc1ccc(Cn2c(C)cn3c(N4CCOC[C@@H]4C)ncc3c2=O)cc1 [Example 96, (S)-7-(4-methoxybenzyl)-6-methyl-3-(3-methylmorpholino)imidazo[1,5-a]pyrazin-8(7H)-one] | –

Row | Structure (SMILES) | IC50 [2] [nM] | IC50 [3] [nM] | % inhibition of PDE9 at 10 microM [4] [%] | IC50 [1] [nM] | further results
33 | COc1ccc(Cn2c(C)cn3c(C4(C)CCN(C)CC4)ncc3c2=O)cc1 [Example 73, 3-(1,4-dimethylpiperidin-4-yl)-7-(4-methoxybenzyl)-6-methylimidazo[1,5-a]pyrazin-8(7H)-one] | 1450 | 2450 | – | 1920 | –
34 | COc1ccc(Cn2c(C)cn3c(NC4CCOC4)ncc3c2=O)cc1 (stereo not shown) [Example 94, 7-(4-methoxybenzyl)-6-methyl-3-((tetrahydrofuran-3-yl)amino)imidazo[1,5-a]pyrazin-8(7H)-one] | – | – | – | 2520 | inhibition at 10 µM [4]: -5%
